Test results from patent US9642373B2, “Insecticidal compositions and methods of using same” (Woodstream Corporation, priority 2004, dated 2017).

Test system: insects
Experiment: Previous experiments, treatment of insects with 1% SLS alone (data not shown)
Format: in vivo
Conditions: 300 second time period used in testing

CCCCCCCCCCCCOS(=O)(=O)[O-].[Na+] [1% SLS, sodium lauryl sulfate]
Kill time: > 300 s
